Test results: PubChem BioAssay AID1259407 (Chemical Carcinogenesis Research Information System (CCRIS), 2018)
Calls of active or inactive are those of the source. The rule behind the calls is not given here.

Tested on: CCRIS mutagenicity, Ames/micronucleus/aberration tests
Assay: CCRIS mutagenicity studies
[1] = Test System: AMES SALMONELLA TYPHIMURIUM, Strain/Indicator: TA98, Metabolic Activation: NONE, Method: PREINCUBATION
[2] = Test System: AMES SALMONELLA TYPHIMURIUM, Strain/Indicator: TA100, Metabolic Activation: NONE, Method: PREINCUBATION
[3] = Test System: AMES SALMONELLA TYPHIMURIUM, Strain/Indicator: TA1535, Metabolic Activation: NONE, Method: PREINCUBATION
[4] = Test System: AMES SALMONELLA TYPHIMURIUM, Strain/Indicator: TA1537, Metabolic Activation: NONE, Method: PREINCUBATION
[5] = Test System: AMES SALMONELLA TYPHIMURIUM, Strain/Indicator: TA98, Metabolic Activation: NONE, Method: STANDARD PLATE
[6] = Test System: AMES SALMONELLA TYPHIMURIUM, Strain/Indicator: TA98, Metabolic Activation: RAT, LIVER, S-9, AROCLOR 1254, Method: STANDARD PLATE
[7] = Test System: AMES SALMONELLA TYPHIMURIUM, Strain/Indicator: TA100, Metabolic Activation: NONE, Method: STANDARD PLATE

With `COC(=O)CC(C)=O` the mutagenic call (End Point: In vitro chromosomal aberrations, Test System: Chinese hamster lung (CHL/IU) cells, Metabolic Activation: None) was “inactive; negative”, the mutagenic call (End Point: In vitro chromosomal aberrations, Test System: Chinese hamster lung (CHL/IU) cells, Metabolic Activation: Rat, Liver, S9, Phenobarbital and 5,6-benzoflavone) was “active; positive (ploidy)” and the mutagenic call [1] was “inactive; negative”. For the same molecule, the mutagenic call (Test System: AMES SALMONELLA TYPHIMURIUM, Strain/Indicator: TA98, Metabolic Activation: RAT LIVER S-9, PHENOBARBITAL AND BETA-NAPHTHOFLAVONE, Method: PREINCUBATION) was “inactive; negative”, the mutagenic call (Test System: AMES SALMONELLA TYPHIMURIUM, Strain/Indicator: TA98, Metabolic Activation: RAT, LIVER, S-9, KC 500, Method: PREINCUBATION) was “inactive; negative” and the mutagenic call [2] was “inactive; negative”. The mutagenic call (Test System: AMES SALMONELLA TYPHIMURIUM, Strain/Indicator: TA100, Metabolic Activation: RAT LIVER S-9, PHENOBARBITAL AND BETA-NAPHTHOFLAVONE, Method: PREINCUBATION) was “inactive; negative”, the mutagenic call (Test System: AMES SALMONELLA TYPHIMURIUM, Strain/Indicator: TA100, Metabolic Activation: RAT, LIVER, S-9, KC 500, Method: PREINCUBATION) was “inactive; negative” and the mutagenic call [3] was “inactive; negative”. The mutagenic call (Test System: AMES SALMONELLA TYPHIMURIUM, Strain/Indicator: TA1535, Metabolic Activation: RAT LIVER S-9, PHENOBARBITAL AND BETA-NAPHTHOFLAVONE, Method: PREINCUBATION) was “inactive; negative”, the mutagenic call (Test System: AMES SALMONELLA TYPHIMURIUM, Strain/Indicator: TA1535, Metabolic Activation: RAT, LIVER, S-9, KC 500, Method: PREINCUBATION) was “inactive; negative” and the mutagenic call [4] was “inactive; negative”. For the same molecule, the mutagenic call (Test System: AMES SALMONELLA TYPHIMURIUM, Strain/Indicator: TA1537, Metabolic Activation: RAT LIVER S-9, PHENOBARBITAL AND BETA-NAPHTHOFLAVONE, Method: PREINCUBATION) was “inactive; negative”, the mutagenic call (Test System: AMES SALMONELLA TYPHIMURIUM, Strain/Indicator: TA1537, Metabolic Activation: RAT, LIVER, S-9, KC 500, Method: PREINCUBATION) was “inactive; negative” and the mutagenic call (Test System: AMES SALMONELLA TYPHIMURIUM, Strain/Indicator: TA1538, Metabolic Activation: NONE, Method: PREINCUBATION) was “inactive; negative”. The mutagenic call (Test System: AMES SALMONELLA TYPHIMURIUM, Strain/Indicator: TA1538, Metabolic Activation: RAT, LIVER, S-9, KC 500, Method: PREINCUBATION) was “inactive; negative”, the mutagenic call (Test System: E. COLI, Strain/Indicator: WP2 UVRA, Metabolic Activation: NONE, Method: PREINCUBATION) was “inactive; negative” and the mutagenic call (Test System: E. COLI, Strain/Indicator: WP2 UVRA, Metabolic Activation: RAT, LIVER, S-9, KC 500, Method: PREINCUBATION) was “inactive; negative”. For the same molecule, the mutagenic call (Test System: E.COLI, Strain/Indicator: WP2UVRA/PKM101, Metabolic Activation: NONE, Method: PREINCUBATION) was “inactive; negative” and the mutagenic call (Test System: E.COLI, Strain/Indicator: WP2UVRA/PKM101, Metabolic Activation: RAT LIVER S-9, PHENOBARBITAL AND BETA-NAPHTHOFLAVONE, Method: PREINCUBATION) was “inactive; negative”.
In the case of `OC(c1ccc(Cl)cc1)(c1ccc(Cl)cc1)C1CC1`, the mutagenic call (Test System: AMES SALMONELLA TYPHIMURIUM, Strain/Indicator: TA97, Metabolic Activation: NONE, Method: STANDARD PLATE) is reported as “inactive; negative”, the mutagenic call (Test System: AMES SALMONELLA TYPHIMURIUM, Strain/Indicator: TA97, Metabolic Activation: RAT, LIVER, S-9, AROCLOR 1254, Method: STANDARD PLATE) is reported as “inactive; negative” and the mutagenic call [5] is reported as “inactive; negative”. For the same molecule, the mutagenic call [6] was “inactive; negative”, the mutagenic call [7] was “inactive; negative” and the mutagenic call (Test System: AMES SALMONELLA TYPHIMURIUM, Strain/Indicator: TA100, Metabolic Activation: RAT, LIVER, S-9, AROCLOR 1254, Method: STANDARD PLATE) was “inactive; negative”.
With `Cc1cc(C(C#N)c2ccc(Cl)cc2)c(Cl)cc1NC(=O)c1cc(I)cc(I)c1O` (stereo unspecified) the mutagenic call (End Point: In vivo chromosomal aberrations, Test System: Bone marrow cells, Species: Mouse, Strain/Sex: Swiss/Male, Route: Intraperitoneal) was “active; positive (structural changes)”.
For `CCCCCCCCCCCCCC(=O)ON(C(=O)CCCCCCCCCCCCC)c1ccc2c(c1)Cc1ccccc1-2`, the mutagenic call (Test System: UDS HUMAN FIBROBLASTS, Strain/Indicator: THY INCORP (NON-S-PHASE), Metabolic Activation: NONE, Method: AUTORADIOGRAPHY) was “active; positive”.
With `NC(=O)CCCCC(N)=O` the mutagenic call (Test System: AMES SALMONELLA TYPHIMURIUM, Strain/Indicator: TA98, Metabolic Activation: HAMSTER, LIVER, S-9, AROCLOR 1254, Method: PREINCUBATION) was “inactive; negative”, the mutagenic call [1] was “inactive; negative” and the mutagenic call (Test System: AMES SALMONELLA TYPHIMURIUM, Strain/Indicator: TA98, Metabolic Activation: RAT, LIVER, S-9, AROCLOR 1254, Method: PREINCUBATION) was “inactive; negative”. The mutagenic call (Test System: AMES SALMONELLA TYPHIMURIUM, Strain/Indicator: TA100, Metabolic Activation: HAMSTER, LIVER, S-9, AROCLOR 1254, Method: PREINCUBATION) was “inactive; negative”, the mutagenic call [2] was “inactive; negative” and the mutagenic call (Test System: AMES SALMONELLA TYPHIMURIUM, Strain/Indicator: TA100, Metabolic Activation: RAT, LIVER, S-9, AROCLOR 1254, Method: PREINCUBATION) was “inactive; negative”. For the same molecule, the mutagenic call (Test System: AMES SALMONELLA TYPHIMURIUM, Strain/Indicator: TA1535, Metabolic Activation: HAMSTER, LIVER, S-9, AROCLOR 1254, Method: PREINCUBATION) was “inactive; negative”, the mutagenic call [3] was “inactive; negative” and the mutagenic call (Test System: AMES SALMONELLA TYPHIMURIUM, Strain/Indicator: TA1535, Metabolic Activation: RAT, LIVER, S-9, AROCLOR 1254, Method: PREINCUBATION) was “inactive; negative”. For the same molecule, the mutagenic call (Test System: AMES SALMONELLA TYPHIMURIUM, Strain/Indicator: TA1537, Metabolic Activation: HAMSTER, LIVER, S-9, AROCLOR 1254, Method: PREINCUBATION) was “inactive; negative”, the mutagenic call [4] was “inactive; negative” and the mutagenic call (Test System: AMES SALMONELLA TYPHIMURIUM, Strain/Indicator: TA1537, Metabolic Activation: RAT, LIVER, S-9, AROCLOR 1254, Method: PREINCUBATION) was “inactive; negative”.
In the case of `CCN(CC(O)c1ccc([N+]#N)c([O-])c1)N=O` (stereo unspecified), the mutagenic call [1] is reported as “active; positive”, the mutagenic call (Test System: AMES SALMONELLA TYPHIMURIUM, Strain/Indicator: TA98, Metabolic Activation: RAT LIVER S-9, PCB, Method: PREINCUBATION) is reported as “active; positive” and the mutagenic call [2] is reported as “active; positive”. The mutagenic call (Test System: AMES SALMONELLA TYPHIMURIUM, Strain/Indicator: TA100, Metabolic Activation: RAT LIVER S-9, PCB, Method: PREINCUBATION) was “active; positive”.
In the case of `O=[N+]([O-])c1ccc2c3c(cccc13)-c1cc(O)ccc1-2`, the mutagenic call (Test System: AMES SALMONELLA TYPHIMURIUM, Strain/Indicator: TA98(1,8-DNP6), Metabolic Activation: NONE, Method: STANDARD PLATE) is reported as “inactive; negative”, the mutagenic call (Test System: AMES SALMONELLA TYPHIMURIUM, Strain/Indicator: TA98(NR), Metabolic Activation: NONE, Method: STANDARD PLATE) is reported as “active; positive” and the mutagenic call [5] is reported as “active; positive”. The mutagenic call [6] was “active; positive”, the mutagenic call (Test System: AMES SALMONELLA TYPHIMURIUM, Strain/Indicator: TA100(NR), Metabolic Activation: NONE, Method: STANDARD PLATE) was “inactive; negative” and the mutagenic call (Test System: AMES SALMONELLA TYPHIMURIUM, Strain/Indicator: TA100(TN5-1,8-DNP1012), Metabolic Activation: NONE, Method: STANDARD PLATE) was “inactive; negative”. For the same molecule, the mutagenic call [7] was “active; positive”.
For `CC(=O)N=C1C=CC(=O)C=C1`, the mutagenic call [1] was “inactive; negative”, the mutagenic call (Test System: AMES SALMONELLA TYPHIMURIUM, Strain/Indicator: TA102, Metabolic Activation: NONE, Method: PREINCUBATION) was “inactive; negative” and the mutagenic call (Test System: UDS MOUSE HEPATOCYTES, Strain/Indicator: THY INCORP (NON-S-PHASE), Metabolic Activation: NONE, Method: LIQUID SCINTILLATION COUNTING) was “inactive; negative”.
`COc1ccc2nc3cc(Cl)ccc3c(NCCCNCCCl)c2n1` was tested, and the mutagenic call [5] was “active; positive”, the mutagenic call [7] was “active; positive” and the mutagenic call (Test System: AMES SALMONELLA TYPHIMURIUM, Strain/Indicator: TA1535, Metabolic Activation: NONE, Method: STANDARD PLATE) was “inactive; negative”. The mutagenic call (Test System: AMES SALMONELLA TYPHIMURIUM, Strain/Indicator: TA1536, Metabolic Activation: NONE, Method: STANDARD PLATE) was “active; positive”, the mutagenic call (Test System: AMES SALMONELLA TYPHIMURIUM, Strain/Indicator: TA1537, Metabolic Activation: NONE, Method: STANDARD PLATE) was “active; positive” and the mutagenic call (Test System: AMES SALMONELLA TYPHIMURIUM, Strain/Indicator: TA1538, Metabolic Activation: NONE, Method: STANDARD PLATE) was “active; positive”. For the same molecule, the mutagenic call (Test System: CHO/HGPRT, Strain/Indicator: CHO-K1-BH4, Metabolic Activation: NONE, Method: STANDARD PLATE) was “active; positive”.
